# Source: patent publication EP0076452A2, “Cephalosporin derivatives, process for their preparation and pharmaceutical compositions containing them” (priority 1981, dated 1983)
# Like-named read-outs stand apart in the source and are kept apart here.
# Experiments:
# [1] = tested on: Streptococcus pyogenes Aronson; test: Antibiotic activity in vitro, agar dilution method in DST agar (MIC); format: cell-based; conditions: for MIC: Streptococcus pyogenes, read-out: MIC Streptococcus pyogenes Aronson
# Source text: (§1) A. Die antibiotische Aktivität der Testverbindungen in vitro wurde durch die Agarverdünnungsmethode nach Ericsson, H.M., und Sherris, S.C., 1971, Acta Path. Microb. Scand. Section B, Suppl. No. 217, Bd. 1-90, in DST Agar ermittelt. Die gefundenen, das Wachstum der Testorganismen noch hemmenden Minimalkonzentrationen (MIC = minimum inhibiting concentrations) werden in Mikrogramm pro Mililiter ([…]) für die geprüften Verbindungen in der Tabelle 1 angegeben.
# Escherichia coli 205 [2] = test: as above; format: cell-based; conditions: for MIC Escherichia coli 205: in vitro
# Source text: as §1
# [3] = tested on: Staphylococcus aureus 10 B; test: Chemotherapeutic efficacy in vivo against systemic infection in mice (ED50); set-up: species or system Maus; conditions: for ED50: Staphylococcus aureus, 10B, sc, read-out: ED50 Staphylococcus aureus 10 B; for ED50 Staphylococcus aureus 10 B: s.c.
# Source text: (§2) B. Die chemotherapeutische Wirksamkeit in vivo gegen systemische Infektionen in weiblicher SPF, MF2 Mäusen wurde nach der Methode von Zak, 0. et al., 1979, Drugs Exptl. Clin. Res. 5, 45-59, ermittelt. Die gefundenen ED50-Werte in Milligramm Substanz pro Kilogramm Maus (mg/kg) für eine Anzahl von Mikroorganismen werden für die subcutan (s.c.) applizierten Testverbindungen in der Tabelle 2 angegeben.
# Escherichia coli 205 [4] = test: as above; set-up: species or system Maus; conditions: for ED50: Escherichia coli, 205, sc, read-out: ED50 Escherichia coli 205
# Source text: as §2
# Proteus rettgeri 856 = test: Antibiotic activity in vitro, agar dilution method in DST agar (MIC); format: cell-based; conditions: for MIC Proteus rettgeri 856: in vitro
# Source text: as §1
# [5] = in vitro, agar dilution, DST Agar
# [6] = Escherichia coli, 205, in vitro, agar dilution, DST Agar, read-out: MIC Escherichia coli 205
# [7] = systemic infection, female SPF MF2 mice
# [8] = s.c., systemic infection, female SPF MF2 mice
# [9] = Providencia rettgeri, 856, in vitro, agar dilution, DST Agar, read-out: MIC Proteus rettgeri 856
# [10] = agar dilution, DST Agar, listed as 8
smiles,measurement,setting,value
CO/N=C(\C(=O)N[C@@H]1C(=O)N2C(C(=O)O)=CCS[C@H]12)c1coc(N)n1 [Testverbindung 14],MIC,[1]; [5],0.01 µg/mL
same,MIC,Escherichia coli 205 [2]; [6],0.2 µg/mL
same,ED50,[3]; [7],30 mg/kg
same,ED50,Escherichia coli 205 [4]; [8],9 mg/kg
CC(C)(ON=C(C(=O)NC1C(=O)N2C(C(=O)[O-])=C(C[n+]3ccc(C(N)=O)cc3)CSC12)c1coc(N)n1)C(=O)O (stereo not shown) [Testverbindung 10],MIC,[1]; [5],0.02 µg/mL
same,MIC,Proteus rettgeri 856; [9],0.2 µg/mL
same,MIC,Escherichia coli 205 [2]; [6],4 µg/mL
same,ED50,[3]; [7],> 30 mg/kg
same,ED50,Escherichia coli 205 [4]; [8],> 30 mg/kg
CO/N=C(/C(=O)N[C@@H]1C(=O)N2C(C(=O)O)=C(CSc3nnnn3CCN(C)C)CS[C@H]12)c1coc(N)n1 [Testverbindung 4],MIC,[1]; [5],0.05 µg/mL
same,MIC,Proteus rettgeri 856; [9],2 µg/mL
same,MIC,Escherichia coli 205 [2]; [6],8 µg/mL
CO/N=C(\C(=O)N[C@@H]1C(=O)N2C(C(=O)O)=C(CSc3nnnn3CC(=O)O)CS[C@H]12)c1coc(N)n1 [Testverbindung 2],MIC,[1]; [5],0.1 µg/mL
same,MIC,Escherichia coli 205 [2]; [6],0.5 µg/mL
same,ED50,[3]; [7],55 mg/kg
same,ED50,Escherichia coli 205 [4]; [8],0.63 mg/kg
CO/N=C(\C(=O)N[C@@H]1C(=O)N2C(C(=O)O)=C(CSc3nnnn3C)CS[C@H]12)c1coc(N)n1 [Testverbindung 1],MIC,Escherichia coli 205 [2]; [6],0.1 µg/mL
same,ED50,[3]; [7],12 mg/kg
same,ED50,Escherichia coli 205 [4]; [8],1.5 mg/kg
CC(=O)OCC1=C(C(=O)O)N2C(=O)[C@@H](NC(=O)/C(=N\O)c3coc(N)n3)[C@H]2SC1 [Testverbindung 6],MIC,Proteus rettgeri 856; [9],0.02 µg/mL
same,MIC,Escherichia coli 205 [2]; [6],0.1 µg/mL
same,ED50,[3]; [7],1.35 mg/kg
same,ED50,Escherichia coli 205 [4]; [8],1 mg/kg
CO/N=C(\C(=O)N[C@@H]1C(=O)N2C(C(=O)O)=C(CSc3nnnn3CCN(C)C)CS[C@H]12)c1coc(N)n1 [Testverbindung 3],MIC,[1]; [5],0.02 µg/mL
same,MIC,Proteus rettgeri 856; [9],0.02 µg/mL
same,MIC,Escherichia coli 205 [2]; [6],0.1 µg/mL
same,ED50,[3]; [7],28 mg/kg
same,ED50,Escherichia coli 205 [4]; [8],1.7 mg/kg
"CO/N=C(\C(=O)N[C@@H]1C(=O)N2C(C(=O)OCOC(=O)C(C)(C)C)=C(COC(N)=O)CS[C@H]12)c1coc(N)n1 [Beispiel 18, 3-Carbamoyloxymethyl-7ß-[2-(2-amino-4-oxazolyl)-2-Z-methoxyimino-acetylamino]-3-cephem-4-carbonsäure-pivaloyloxymethylester]",MIC Streptococcus pyogenes Aronson,[1]; [5],"0,02 µg/ml"
same,MIC Proteus rettgeri 856,"Proteus rettgeri 856; agar dilution, DST Agar","0,01 µg/ml"
same,MIC Escherichia coli 205,"Escherichia coli 205 [2]; agar dilution, DST Agar","0,1 µg/ml"
same,ED50 Staphylococcus aureus 10 B,[3]; [7],8 mg/kg
same,ED50 Escherichia coli 205,Escherichia coli 205 [4]; [8],>30 mg/kg
CC(C)(O/N=C(\C(=O)N[C@@H]1C(=O)N2C(C(=O)[O-])=C(C[n+]3ccc(C(N)=O)cc3)CS[C@H]12)c1coc(N)n1)C(=O)O [Testverbindung 10],MIC,[1]; [5],0.2 µg/mL
same,MIC,Proteus rettgeri 856; [9],0.5 µg/mL
same,MIC,Escherichia coli 205 [2]; [6],0.5 µg/mL
same,ED50,[3]; [7],> 30 mg/kg
same,ED50,Escherichia coli 205 [4]; [8],1.6 mg/kg
"CO/N=C(\C(=O)N[C@@H]1C(=O)N2C(C(=O)[O-])=C(C[n+]3ccc(C(N)=O)cc3)CS[C@H]12)c1coc(N)n1 [Testverbindung 5, 3-(4-Carbamoylpyridiniomethyl)-7β-[2-(2-amino-4-oxazolyl)-2-Z-methoxyiminoacetylamino]-3-cephem-4-carboxylat]",MIC,[1]; [5],0.02 µg/mL
same,MIC Proteus rettgeri 856,Proteus rettgeri 856; [10],1 µg/mL
same,MIC Escherichia coli 205,Escherichia coli 205 [2]; [10],4 µg/mL
same,ED50 Staphylococcus aureus 10 B,"[3]; systemic infection, female SPF MF2 mice, listed as 8",>30 mg/kg
same,ED50 Escherichia coli 205,"Escherichia coli 205 [4]; s.c., systemic infection, female SPF MF2 mice, listed as 8",>30 mg/kg
CO/N=C(\C(=O)N[C@@H]1C(=O)N2C(C(=O)[O-])=C(C[n+]3ccc(C(N)=O)cc3)CS[C@H]12)c1coc(N)n1 [Testverbindung 5],MIC Proteus rettgeri 856,"Proteus rettgeri 856; agar dilution, DST Agar","0,02 µg/ml"
same,MIC Escherichia coli 205,"Escherichia coli 205 [2]; agar dilution, DST Agar","0,2 µg/ml"
same,ED50 Staphylococcus aureus 10 B,[3]; [7],"5,5 mg/kg"
same,ED50 Escherichia coli 205,Escherichia coli 205 [4]; [8],"2,4 mg/kg"
"CON=C(C(=O)NC1C(=O)N2C(C(=O)[O-])=C(C[n+]3ccc(C(=O)O)cc3)CSC12)c1coc(N)n1 (stereo not shown) [Testverbindung 17, 3-(4-Carboxylatpyridiniomethyl)-7ß-[2-(2-amino-4-oxazolyl)-2-Z-methoxyiminoacetylamino]-3-cephem-4-carboxylat-natriumsalz]",MIC,[1]; [5],0.02 µg/mL
same,MIC,Escherichia coli 205 [2]; [6],0.5 µg/mL
same,ED50,[3]; [7],5.5 mg/kg
same,ED50,Escherichia coli 205 [4]; [8],2 mg/kg
CO/N=C(\C(=O)N[C@@H]1C(=O)N2C(C(=O)O)=C(COC(C)=O)CS[C@H]12)c1coc(N)n1 [Testverbindung 13],MIC,[1]; [5],0.01 µg/mL
same,MIC,Escherichia coli 205 [2]; [6],0.1 µg/mL
same,ED50,[3]; [7],5 mg/kg
same,ED50,Escherichia coli 205 [4]; [8],1 mg/kg
CC(C)(O/N=C(\C(=O)N[C@@H]1C(=O)N2C(C(=O)[O-])=C(C[n+]3ccccc3)CS[C@H]12)c1coc(N)n1)C(=O)O [Testverbindung 9],MIC,[1]; [5],0.5 µg/mL
same,MIC,Proteus rettgeri 856; [9],0.2 µg/mL
same,MIC,Escherichia coli 205 [2]; [6],1 µg/mL
same,ED50,[3]; [7],> 30 mg/kg
same,ED50,Escherichia coli 205 [4]; [8],5.6 mg/kg
"CC(C)(ON=C(C(=O)NC1C(=O)N2C(C(=O)[O-])=C(C[n+]3ccccc3)CSC12)c1coc(N)n1)C(=O)O (stereo not shown) [Testverbindung 9, 3-Pyridiniomethyl-7ß-[2-(2-amino-4-oxazolyl)-2-Z-(2-carboxy-prop-2-yloxyimino)-acetylamino]-3-cephem-4-carboxylat-natriumsalz]",MIC,[1]; [5],0.2 µg/mL
same,MIC,Proteus rettgeri 856; [9],0.01 µg/mL
same,MIC,Escherichia coli 205 [2]; [6],0.2 µg/mL
same,ED50,[3]; [7],> 30 mg/kg
same,ED50,Escherichia coli 205 [4]; [8],4.4 mg/kg
"CO/N=C(\C(=O)N[C@@H]1C(=O)N2C(C(=O)O)=C(CSc3nnnn3CCN(C)C)CS[C@H]12)c1coc(N)n1.Cl.Cl [Testverbindung 3, 3-[1-(2-Dimethylaminoäthyl)-1H-tetrazol-5-ylthiomethyl]-7ß-[2-(2-amino-4-oxazolyl)-2-Z-methoxyiminoacetylamino]-3-cephem-4-carbonsäure-dihydrochlorid]",MIC Streptococcus pyogenes Aronson,[1]; [5],"0,05 µg/ml"
same,MIC Proteus rettgeri 856,"Proteus rettgeri 856; agar dilution, DST Agar","0,01 µg/ml"
same,MIC Escherichia coli 205,"Escherichia coli 205 [2]; agar dilution, DST Agar","0,2 µg/ml"
same,ED50 Staphylococcus aureus 10 B,[3]; [7],>30 mg/kg
same,ED50 Escherichia coli 205,Escherichia coli 205 [4]; [8],>30 mg/kg
CO/N=C(\C(=O)N[C@@H]1C(=O)N2C(C(=O)[O-])=C(C[n+]3ccc(C(=O)O)cc3)CS[C@H]12)c1coc(N)n1 [Testverbindung 17],MIC,[1]; [5],0.05 µg/mL
same,MIC,Proteus rettgeri 856; [9],0.02 µg/mL
same,MIC,Escherichia coli 205 [2]; [6],0.5 µg/mL
same,ED50,[3]; [7],> 30 mg/kg
"CON=C(C(=O)NC1C(=O)N2C(C(=O)[O-])=C(C[n+]3cccc(Cl)c3)CSC12)c1coc(N)n1 (stereo not shown) [Testverbindung 16, 3-(3-Chlorpyridiniomethyl)-7ß-[2-(2-amino-4-oxazolyl)-2-Z-methoxyiminoacetylamino]-3-cephem-4-carboxylat]",MIC,[1],0.2 µg/mL
same,MIC,"Proteus rettgeri 856; Providencia rettgeri, 856, read-out: MIC Proteus rettgeri 856",0.1 µg/mL
same,MIC,"Escherichia coli 205 [2]; Escherichia coli, 205, read-out: MIC Escherichia coli 205",8 µg/mL
same,ED50,[3],30 mg/kg
same,ED50,Escherichia coli 205 [4],14 mg/kg
